Source: patent US6277886A (priority 1996, dated 2001)

System: pressor response to catecholamines in the cat
Test: Pressor response to catecholamines in the anesthetized cat before and after S(-)PAI
Format: in vivo
Conditions: S(-)PAI 1 mg/kg i.v.
Protocol: Cats were anesthetized with i.v. nembutal 25 mg/kg. Anesthesia was maintained by additional injections of nembutal, 5 mg/kg, as needed. The femoral artery was cannulated and connected to a Statham pressure transducer for blood pressure recordings on a Grass multichannel Polygraph. The femoral vein was cannulated for i.v. injection of drugs.

C#CCN[C@H]1CCc2ccccc21 [S(-)PAI, S-(-)-N-propargyl-1-aminoindan]
Δ mean arterial pressure after S(-)PAI (challenge norepinephrine 0.02 μg/kg): 12 mmHg | Δ mean arterial pressure after S(-)PAI (challenge norepinephrine 0.05 μg/kg): 32 mmHg | Δ mean arterial pressure after S(-)PAI (challenge norepinephrine 0.10 μg/kg): 23 mmHg | Δ mean arterial pressure after S(-)PAI (challenge norepinephrine 0.20 μg/kg): 46 mmHg | Δ mean arterial pressure after S(-)PAI (challenge phenylephrine 0.20 μg/kg): 2 mmHg | Δ mean arterial pressure after S(-)PAI (challenge phenylephrine 0.50 μg/kg): 17 mmHg | Δ mean arterial pressure after S(-)PAI (challenge phenylephrine 1.0 μg/kg): 17 mmHg | Δ mean arterial pressure after S(-)PAI (challenge phenylephrine 2.0 μg/kg): 42 mmHg | Δ mean arterial pressure after S(-)PAI (challenge tyramine 2.0 μg/kg): 3 mmHg | Δ mean arterial pressure after S(-)PAI (challenge tyramine 5.0 μg/kg): 9 mmHg | Δ mean arterial pressure after S(-)PAI (challenge tyramine 10.0 μg/kg): 28 mmHg | Δ mean arterial pressure after S(-)PAI (challenge tyramine 20.0 μg/kg): 39 mmHg | potentiation of the pressor response (phenylephrine, tyramine, norepinephrine, in words): no significant potentiation of the pressor response
